This is an account of results in patent US4610686A, “Controlled delivery of haloperidol by an osmotic delivery system” (ALZA Corporation, priority 1983, dated 1986).

≈ marks a conversion by molar mass, not a printed value.

For series [1] the following is noted: haloperidol alone.
For series [2] the following is noted: haloperidol, background statement; cited from earlier work.

As for `O=C(CCCN1CCC(O)(c2ccc(Cl)cc2)CC1)c1ccc(F)cc1` [haloperidol, 4-[4-(-chlorophenyl)-4-hydroxy-1-piperidnyl]-1-(4-fluorophenyl)-1-butanone], the solubility is 165 mg/mL (≈ 439 mM) in the series “physchem” (aqueous citric acid), > 200 mg/mL in “physchem” (aqueous maleic acid), > 250 mg/mL in “physchem” (aqueous malic acid) and < 0.1 mg/mL in the series “physchem” (water). Also, in series [1], the “osmotic pressure (in words)” value is “near zero osmotic pressure”. Moreover, the “solubility in water (in words, background)” value in series [2] is “practically insoluble in water”.
